Laboratory results taken from PubChem BioAssay (NCI).
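Compound exposure: 48 hours, 5 concentrations, 96-well plates. Abbreviation: GI50, concentration required for 50% inhibition of growth. Definition used: TGI = concentration required for complete inhibition of growth.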

What was measured:
Assay in all cases: NCI-60 cell line screen, 48 h
[1] = tested on: SK-MEL-28 melanoma
[2] = tested on: COLO 205 colon
[3] = tested on: A549 NSCLC
[4] = tested on: OVCAR-3 ovarian
[5] = tested on: MALME-3M melanoma
[6] = tested on: MOLT-4 leukemia
[7] = tested on: CCRF-CEM leukemia
[8] = tested on: NCI-H226 lung

| SMILES | TGI [1] | TGI [2] | TGI [3] | TGI [4] | TGI [5] | TGI [6] | TGI [7] | TGI [8] | GI50 [7] | GI50 [1] | GI50 [3] | GI50 [4] | GI50 [6] |
| --- | --- | --- | --- | --- | --- | --- | --- | --- | --- | --- | --- | --- | --- |
| CC(=O)N1CCOC12N=NC(C)(C)O2 (stereo not given) | > 100 µM | > 100 µM | > 100 µM | > 100 µM | > 100 µM | > 100 µM | – | – | – | – | – | – | – |
| Cc1cc2ccccc2n2c1nc1ccc(O)cc12 | > 10 µM | > 10 µM | > 10 µM | > 10 µM | > 10 µM | > 10 µM | > 10 µM | – | – | – | – | – | – |
| O=[N+]([O-])/C(Cl)=C(\NCCO)C(Cl)=C(Cl)Cl | > 100 µM | 79.3 µM | > 100 µM | > 100 µM | 65 µM | 63.6 µM | 52.1 µM | > 100 µM | – | – | – | – | – |
| C[C@@H]([C@H]1CC[C@@]2(C)[C@@H]3CC[C@@H]4C(=CC3=CC[C@]12C)CC[C@H](N(C)C)C4(C)C)N(C)C | > 100 µM | > 100 µM | – | > 100 µM | > 100 µM | > 100 µM | > 100 µM | > 100 µM | – | – | – | – | – |
| CC1=NN(c2ccccc2)C(=O)/C1=C\c1c(C)[nH]n(-c2ccccc2)c1=O | > 100 µM | > 100 µM | > 100 µM | > 100 µM | > 100 µM | > 100 µM | > 100 µM | > 100 µM | – | – | – | – | – |
| CNCC(SC)c1ccc(O)c(O)c1 (stereo not given) | > 100 µM | 32.9 µM | > 100 µM | 40.9 µM | 32.4 µM | 47.2 µM | 7.33 µM | > 100 µM | – | – | – | – | – |
| CC1(C)Cc2ccccc2C(C)(Cl)C(=O)N1 (stereo not given) | > 10 µM | > 10 µM | > 10 µM | > 10 µM | > 10 µM | > 10 µM | > 10 µM | > 10 µM | – | – | – | – | – |
| COC1(C)CCC(OS(C)(=O)=O)CO1 (stereo not given) | > 100 µM | > 100 µM | > 100 µM | > 100 µM | > 100 µM | > 100 µM | > 100 µM | > 100 µM | – | – | – | – | – |
| Cc1noc(-c2ccc(C(=O)O)[nH]2)c1Br | > 100 µM | > 100 µM | > 100 µM | > 100 µM | > 100 µM | > 100 µM | > 100 µM | – | – | – | – | – | – |
| C/C(CC(O)(C(F)(F)F)C(F)(F)F)=N\O | > 10 µM | > 10 µM | > 10 µM | > 10 µM | > 10 µM | > 10 µM | > 10 µM | > 10 µM | – | – | – | – | – |
| O=C(NNC(=O)c1ccncc1)C(=O)Nc1cc(Cl)c(Cl)cc1Cl | > 100 µM | – | > 100 µM | > 100 µM | > 100 µM | > 100 µM | – | > 100 µM | – | – | – | – | – |
| O=Cc1c2c(cc3c1CC1(C3)Cc3cc4c(c(C=O)c3C1)CCC4)CCC2 | – | 57.4 µM | 87.5 µM | > 100 µM | 89.3 µM | 48.7 µM | 58.4 µM | > 100 µM | – | – | – | – | – |
| O=C1CC(c2cccc([N+](=O)[O-])c2)C2(C(=O)NC(=S)NC2=O)C(c2cccc([N+](=O)[O-])c2)C1 (stereo not given) | > 100 µM | > 100 µM | > 100 µM | > 100 µM | 53.2 µM | > 100 µM | 97.1 µM | 59.9 µM | – | – | – | – | – |
| O=C(CCC(NC(=O)OCc1ccccc1)C(=O)OCc1ccccc1)Nc1cccc(OCc2ccccc2)c1 (stereo not given) | > 100 µM | 31.9 µM | > 100 µM | 45.4 µM | 56.4 µM | > 100 µM | 99.4 µM | > 100 µM | – | – | – | – | – |
| COc1cccc(C2C(C#N)=C(N)Oc3cc(OCCCCCC[P+](c4ccccc4)(c4ccccc4)c4ccccc4)ccc32)c1 (stereo not given) | 1.69 µM | – | 4.51 µM | 1.37 µM | – | 3.96 µM | 3.36 µM | – | 0.596 µM | 0.477 µM | 1.53 µM | 0.382 µM | 1.22 µM |
| CC(C)(C)c1cc(C(C)(C)C)c(SC2OC(CO)C(O)C(O)C2O)c(O)c1O (stereo not given) | 70.5 µM | > 81.4 µM | 21.3 µM | 28.4 µM | 26.9 µM | > 100 µM | > 34.7 µM | 36.7 µM | – | – | – | – | – |
| C#CCn1c(I)cc2c(c1=O)COC(=O)[C@]2(O)CC | > 100 µM | > 100 µM | > 100 µM | > 100 µM | > 100 µM | > 100 µM | > 100 µM | > 100 µM | – | – | – | – | – |
| COc1ccc(NCn2nc(CCCCCCCCc3nn(CNc4ccc(OC)cc4)c(=S)o3)oc2=S)cc1 | > 100 µM | > 100 µM | > 100 µM | – | > 100 µM | > 100 µM | – | > 100 µM | – | – | – | – | – |
| C/C(=N\Nc1nc2cc(F)ccc2s1)c1ccccn1 | > 100 µM | – | – | 5.45 µM | 23 µM | > 100 µM | > 100 µM | – | – | – | – | – | – |
| O=C(NNC(=O)c1ccc(Cl)cc1NC(=O)C12CC3CC(CC(C3)C1)C2)c1ccc(Cl)cc1 | – | 27.6 µM | 42.8 µM | 58.3 µM | 38.5 µM | 60.6 µM | 62.5 µM | 65.1 µM | – | – | – | – | – |
| CCOC(=O)C1=C(N2CCCC2)C(=O)C(C(=O)OCC)C1 (stereo not given) | > 100 µM | > 100 µM | > 100 µM | > 100 µM | > 100 µM | > 100 µM | – | > 100 µM | – | – | – | – | – |
| Cc1cc(NS(=O)(=O)c2ccc(Nc3c4ccccc4nc4c(C(=O)NC(CO)(CO)CO)cccc34)cc2)no1 | > 100 µM | > 100 µM | > 100 µM | > 100 µM | 92.2 µM | 49 µM | 66.3 µM | – | – | – | – | – | – |
| O=C(Oc1cncc(Cl)c1)c1cc2ccccc2sc1=O | > 100 µM | > 100 µM | > 100 µM | > 100 µM | > 100 µM | 90 µM | – | 57.1 µM | – | – | – | – | – |
| CC(=O)c1c(-c2ccco2)c(C#N)c(=S)n(C2OC(CO)C(O)C(O)C2O)c1C (stereo not given) | > 100 µM | > 100 µM | > 100 µM | > 100 µM | > 100 µM | > 100 µM | > 100 µM | – | – | – | – | – | – |
| CC(=O)OC1C2CCC3CC2C2(SCCS2)C31 (stereo not given) | > 100 µM | > 100 µM | > 100 µM | > 100 µM | > 100 µM | > 100 µM | – | > 100 µM | – | – | – | – | – |
| C=C1c2nc3ccccc3n2C=C(c2ccccc2)N1c1ccc(C)cc1 | – | > 100 µM | > 100 µM | > 100 µM | > 100 µM | > 100 µM | > 100 µM | > 100 µM | – | – | – | – | – |
